Source: patent US20030039628A1, “Activation and protection of T-cells (CD4+ and CD8+) using an H2 receptor agonist and other T-cell activating agents” (priority 1998, published 2003)

Experiments:
[1] = system: CD69 expression on T-cells; assay: CD69 expression on T-cells incubated with or without autologous monocytes (MO), flow cytometry; assay type: cell-based, human
Protocol: To study the activation characteristics of T-cells in the presence and absence of MO, T-cell activation compounds, H2-receptor agonists, and H2O2 scavengers, peripheral venous blood was obtained as freshly prepared leukopacks from healthy blood donors at the Blood Centre, Sahlgren's Hospital, Göteborg, Sweden. The blood (65 ml) was mixed with 92.5 ml Iscove's medium, 35 ml 6% Dextran (Kabi Pharmacia, Stockholm, Sweden) and 7.5 ml acid citrate dextrose (ACD) (Baxter, Deerfield, Ill.). After incubation for 15 minutes at room temperature, the supernatant was carefully layered onto Ficoll-Hypaque (Lymphoprep, Myegaard, Norway). Mononuclear cells (MNC) were collected at the interface after centrifugation at 380 g for 15 minutes at room temperature, washed twice in PBS and resuspended in Iscove's medium supplemented with 10% human AB^+ serum. During all further separation of cells, the cell suspensions were kept in siliconized test tubes (Vacuette, Greiner, Stockholm).
The MNC were further separated into lymphocyte and monocyte (MO) populations using the counter-current centrifugal elutriation (CCE) technique originally described by Yasaka and co-workers (Yasaka, T. et al., J. Immunol., 127:1515) with modifications as described in Hansson, M., et al. (J. Immunol., 156: 42 (1996); hereby incorporated by reference). Briefly, the MNC were resuspended in elutration buffer containing 0.05% BSA and 0.015% EDTA in buffered NaCl and fed into a Beckman J2-21 ultracentrifuge with a JE-6B rotor at 2100 rpm. A fraction with >90% MO was obtained at a flow rate of 18 ml/min. A lymphocyte fraction enriched for NK-cells (CD3^−/56^+ phenotype) and T-cells (CD3^+/56^−) was recovered at flow rates of 14-15 ml/min. […] In some experiments, dynabeads (Dynal A/S, Oslo, Norway) coated with anti-CD56 were used to obtain purified lymphocyte preparations of T-cells, as described in detail by Hansson, M., et al., incorporated above.
Flow cytometry was used in the experiments described below to identify the various sub-populations of T-cells. Flow cytometry permits an investigator to examine a population of cells using a number of labeled probes to differentiate sub-populations within the larger whole. In these experiments, the CD3 marker was used to identify the subpopulation of T-cells and the CD4 and CD8 markers were used to further identify the subpopulation of T-cells into T helper cells and CTLs. The effects of MO exposure in the presence and absence of histamine and T-cell activation compounds were determined using the CD69 T-cell activation marker. The expression of the different markers was estimated in a lymphocyte gate using flow cytometry (as described in Hellstrand, K., et al. Cell. Immunol. 138: 44-54 (1991), and hereby incorporated by reference).
The following protocol was used in experiments reporting the detection of surface antigens of cell populations. One million cells were incubated with appropriate fluorescein isothiocynate (FITC) and phycoerythrin (PE) conjugated monoclonal antibodies (Becton & Dickinson, Stockholm, Sweden; 1:1/10^6 cells), on ice for 30 minutes. The cells were washed twice in PBS and resuspended in 500:1 sterile filtered PBS and analyzed by use of flow cytometry on a FACSort with a Lysys II software program (Becton & Dickenson). Lymphocytes were gated on the basis of forward and right angle scatter. The flow rate was adjusted to <200 cells×s^− and at least 5×10^3 cells were analyzed for each sample, if not otherwise stated.
Isolated peripheral blood lymphocytes (150,000 cells/well in a total volume of 0.2 ml) were incubated in microplates for 16 hours at 37° C. in the presence or absence of autologous MO.

[2] = target: H2 receptor (Homo sapiens, UniProt P25021); settings: cited from earlier work
Sequence of H2 receptor (P25021 whole entry): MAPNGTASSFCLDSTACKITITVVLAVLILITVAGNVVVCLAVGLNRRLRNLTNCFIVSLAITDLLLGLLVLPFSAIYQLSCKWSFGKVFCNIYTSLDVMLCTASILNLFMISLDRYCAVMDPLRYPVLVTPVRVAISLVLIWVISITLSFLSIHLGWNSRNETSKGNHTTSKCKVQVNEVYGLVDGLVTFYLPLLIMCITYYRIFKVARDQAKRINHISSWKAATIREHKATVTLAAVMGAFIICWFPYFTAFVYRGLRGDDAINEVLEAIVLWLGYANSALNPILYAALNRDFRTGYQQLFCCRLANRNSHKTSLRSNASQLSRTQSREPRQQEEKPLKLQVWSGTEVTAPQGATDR

[3] = system: T-cells and NK-cells; assay: MO-induced cell death (apoptosis) of T-cells and NK-cells, flow cytometry; assay type: cell-based, human
Protocol: In this Example, apoptotic morphology of lymphocytes exposed to MO was monitored by staining cells with a dye mix containing acridine orange (10:g/ml; Sigma) and ethidium bromide (10:g/ml; Sigma), both prepared in phosphate buffered saline. One microliter (1:1) of dye mix was added to 25:1 of cells suspension (1-2×10^6/ml) in siliconized test tubes. Thereafter, 10:1 of the cell suspension was placed on a glass slide and immediately counted in a fluorescence microscope (Nikon) under times forty (×40) magnification with qualification of dead, living, apoptotic and non-apoptotic cells. (See Hellstrand, K., et al. J. Immunol., 153: 4940-4947 (1994); Hansson, M., et al., J. Immunol. 156:42-47 (1996)).
(See Hansson M., et al., supra). Cell death in lymphocytes was monitored by gating nonviable T-cells or NK-cells after exposure to MO, with and without histamine or catalase. A gate with reduced forward scatter and increased right angle scatter characteristic of apoptosis was employed in these studies. (See Hansson M., et al., supra; Mizgerd J. P., et al., J. Leukoc. Biol. 59:189 (1996); herein incorporated by reference; gate also described in Example 1).

[4] = system: NK cells; settings: cited from earlier work
[5] = system: T-cell enriched lymphocytes; assay type: cell-based, human
[6] = system: lymphocytes; settings: cited from earlier work
[7] = system: NK cells; settings: absence of monocytes; cited from earlier work
[8] = system: herpes simplex virus (HSV); settings: single dose of histamine; cited from earlier work
[9] = system: CD3e+ T-cells and CD56+ NK-cells; settings: cited from earlier work

## CNC(=C[N+](=O)[O-])NCCOCc1ccc(CN(C)C)o1 [AH20399AA]
[1]; equimolar or 10-fold lower concentrations than histamine
  antagonism of the histamine response on cytokine-induced CD69 expression: did not block
[2]
  reduction of affinity for the H2 receptor relative to ranitidine: > 50 fold
[3]; concentrations equimolar to 10-fold lower than histamine
  reversal of the histamine effect on MO-induced cell death: not

## CN(C)CCCSC(=N)N [dimaprit]
[4]
  action on histamine's effect on granulocyte mediated suppression of NK cell antibody dependent cytotoxicity: mimicked

## NCCc1c[nH]cn1 [histamine]
[5]
  effect on vaccine-induced proliferation: strongly potentiated
  proliferation of cells not treated with the vaccine: slightly augmented
[6]
  effect on lymphocyte proliferation in response to phytohemagglutinin or staphylococcal enterotoxin type A: reduce the proliferation
[1]; MO present vs. absence of MO
  effect on CD69 expression in CD3+ and CD4+ T-cells incubated with IFN-α: enhanced the expression of CD69 to a significantly higher level
[1]; histamine 50 :M, IL-2 100 U/ml, with MO
  effect on MO-induced inhibition of IL-2 induced acquisition of CD69 in T-cells: counteracted
[1]; histamine 50 :M, incubated without MO
  effect on CD69 expression in non-stimulated or cytokine-activated T-cells: did not significantly alter
[1]; with MO
  effect on CD69 expression in CD8+ cells activated with IFN-α: restored by histamine to the level observed in pure lymphocytes
[1]; with MO, histamine 0.1-50:M, dose-dependent
  ED50 of effect on cytokine-induced expression of CD69 in T-cells: approximately 2 :M
[7]
  effect on NK mediated cytotoxicity: no effect or weakly suppressed
[8]
  survival time of HSV-inoculated animals: prolong survival time
[3]; all subsets of T-cells and NK-cells, histamine 50 :M, 16 hours
  prevention of MO-induced cell death: > 80%

## OO [hydrogen peroxide]
[9]
  concentration required to induce apoptosis in CD3e+ T-cells relative to CD56+ NK-cells: Approximately 5 fold

## CNC(=C[N+](=O)[O-])NCCSCc1ccc(CN(C)C)o1 [ranitidine]
[4]
  action on histamine's effect on granulocyte mediated suppression of NK cell antibody dependent cytotoxicity: blocked

## IFN-α
[1]; IFN-α, with vs. without MO
  change of IFN-α-induced CD69 in CD3e+ cells by the addition of MO: seemingly unchanged
[1]; in response to IFN-α (100 U/ml)
  induction of CD69 in CD3e+ cells: ~10%
[1]; incubated without MO, p<0.01
  induction of CD69 in CD4+ cells compared with IL-2: less effective than IL-2
[1]; with vs. without MO, p<0.05
  IFN-α induced level of CD69 on CD4+ cells when MO were added: significantly higher
[3]; 100 U/ml
  effect of concomitant treatment on MO-induced cell death and on histamine protection: unaffected

## catalase
[1]; absence of MO
  effect on induction of CD69 in the absence of MO: did not affect
[1]; catalase 10-200 U/ml, IL-2 100 U/ml, with MO
  effect on MO-induced inhibition of cytokine-induced CD69 expression: significantly reversed
[1]; catalase alone, 0 to 200 U/ml, with MO
  effect of catalase alone on percentage of CD3+ cells expressing CD69: little effect
[1]; with MO, IL-2 100 U/ml, catalase 200 U/ml
  percentage of CD3+ cells expressing the CD69 marker: ~11%
[3]
  mimicking of the histamine effect on MO-induced cell death: mimicked
